Measured values from PMC10610379, “Epidrugs as Promising Tools to Eliminate Plasmodium falciparum Artemisinin-Resistant and Quiescent Parasites” (Pharmaceutics, 2023).
Several values for one entry are separate records, joined by “and”; a condition that tells them apart may be missing. Equal entries are not always repeated. Where two headings read alike, the source gives them in different places.

How the values were obtained:
[1] = system: Plasmodium falciparum F32-ART (artemisinin-resistant strain); assay: Standard chemosensitivity assay (SYBR Green I), F32-ART; type: cell-based; details: for IC50: read-out: Antiplasmodial Activity: IC50, F32-ART; for Selectivity Index CC50/IC50: ratio cytotoxicity (mammalian cell type of the CC50)/antiplasmodial activity on F32-ART
Method: (§1) They differ by eight mutations in seven genes (PF3D7_0110400, PF3D7_1343700, PF3D7_0213400, PF3D7_1115700, PF3D7_1302100, PF3D7_1459600, PF3D7_1464500) among them the M476I mutation on the kelch13 gene. F32-ART and F32-TEM strains have RSA^0–3 h values up to 12% and less than 0.1%, respectively. […] Both strains were cultured, in the same conditions, according to the Trager and Jensen protocol with modifications. Briefly, parasites were cultivated in RPMI-1640 medium (Biowest) at 2% hematocrit in human red blood cells and 5% human serum (EFS, French Blood Bank) under 5% CO2 in a humid atmosphere at 37 °C.
(§2) The antimalarial activities of the compounds were evaluated on both strains. […] Antimalarial activities were determined with the SYBR Green I method. Each drug concentration was tested in triplicate. The parasites were incubated with the drugs for 48 h. Plates were read on a BioTek FLX800 Microplate Fluorescence Reader (Bio-Tek instruments, Winooski, VT, USA) (λexcitation = 485 nm, λemission = 528 nm). Control parasite culture (i.e., RPMI with 0.5% DMSO) was referred to as 100% growth. IC50 and IC90 values were determined using GraphPad Prism version 7.05 (GraphPad Software, San Diego, CA, USA). Results were the mean of 3 independent experiments. When it is relevant, statistical significance between results obtained with both parasite strains was determined by a Mann–Whitney test using GraphPad Prism version 7.05.

[2] = system: ART-resistant parasites F32-ART at the quiescent stage; assay: Quiescent-stage Survival Assay (QSA), 48-h exposure; type: cell-based, Plasmodium falciparum
Method: The sensitivity of the ART-resistant parasites F32-ART at the quiescent stage towards the different molecules was determined using the QSA (Quiescent-stage Survival Assay), as previously described.
Epidrugs were tested at their IC90 values. In the present study, quiescence was induced using 3 µM of ART or 700 nM of DHA [28]. Thus, D-sorbitol synchronized ring-stage parasites at 3% parasitemia and 2% hematocrit (5 mL of culture per well in 6-well plates) were first exposed to 6 h of ART or DHA to induce quiescence and then to 48 h of the combination “ART or DHA + compound to be tested”. The combinations “ART 6 h/ART 48 h” or “DHA 6 h/DHA 48 h” were used as controls. The compounds were evaluated, in parallel, on proliferating parasites, i.e., without any pre-treatment. After drug exposure, parasite cultures were washed with 40 mL of RPMI-1640 medium and cultured in drug-free conditions supplemented with 10% human serum in new wells. The parasitemia for each condition was then microscopically monitored every 2 days. Culture media were renewed twice a week and 25 µL of fresh red blood cells were added once a week. Obtained data were used to perform Kaplan–Meier survival analyses considering censored data. The outcome was defined as the day when parasite cultures reached the initial parasitemia (3%) and data were considered as censored if no parasite recrudescence was observed during the 30-day experiment timeframe. When relevant, statistical significance between results obtained for the conditions “ART/ART” and “ART/ART + compound to be tested” or “DHA/DHA” and “DHA/DHA + compound to be tested” was determined by a Log Rank (Mantel Cox) test using GraphPad Prism version 7.05. For the best compounds targeting histones, in order to compare western blots data, modified QSAs were carried out by comparing “DHA 6 h/DHA 24 h” versus “DHA 6 h/DHA + compound to be tested 24 h”.

[3] = system: Plasmodium falciparum F32-TEM (artemisinin-sensitive twin line); assay: Standard chemosensitivity assay (SYBR Green I), F32-TEM; type: cell-based; details: read-out: Antiplasmodial Activity: IC50, F32-TEM
Method: as §1, §2

HFF = details: read-out: Cytotoxicity: CC50 (HFF), data from literature ref 48; cited from earlier work
H3K4me2 = assay: Immunoblotting, histone mark abundance in F32-ART parasites; type: cell-based, Plasmodium falciparum; details: 90nM
Method: (§3) Abundance of methylated and acetylated histone was determined in parasite cultures in different conditions: “not-treated”, “DHA 24 h”, “DHA 6 h/DHA 24 h” and “DHA 6 h/DHA + compound to be tested 24 h”. At the end of the treatments, parasite cultures were washed in RPMI-1640 and then twice in PBS 1× before red blood cell lysis with 0.075% saponin (Sigma-Aldrich) in PBS. Parasite ghosts were washed 3 times in PBS before incubating the ghosts with E1A lysis buffer (50 mM Hepes pH 7.5; 250 mM NaCl; 5 mM EDTA; 0.1% Triton X-100, 1 mM DTT, 0.2 mM PMSF supplemented with complete Mini EDTA-free protease inhibitor cocktail (Roche®, Basel, Switzerland)) for 15 min. Ghosts were then sonicated for 3 × 15s ON/OFF cycles to shear parasite membranes. Debris were pelleted by centrifuging for 15 min at 13,800× g and 4 °C, and supernatants (containing parasitic proteins) were then collected. Protein concentrations were determined using BCA assay (Bio-Rad, Hercules, CA, USA) according to the manufacturer’s instructions. For each sample, 10 µg of proteins were mixed with 4× sample buffer (10 mL 50% Glycerol, 5 mL 0.5 M Tris HCl pH 6.8, 4 mL 20% SDS, 0.02% Bromophenol blue for a total solution volume of 20 mL) and 100 mM DTT and then separated on 15% SDS-PAGE gels in Laemmli running buffer. Gels were then wet-transferred O/N at 20 V onto PVDF membranes. Membranes were blocked in TBST for 1 h at room temperature. Bottom parts were then probed with histone antibodies while upper parts were probed with PFALDOLASE antibody (Abcam, ab38905, Cambridge, UK) at 1:20,000 dilution. The following primary antibodies were used: anti-H3K4me1 (Abcam, ab8895); anti-H3K4me2 (Abcam, ab35356); anti-H3K9me2 (Abcam, ab1220); anti-H3K9me3 (Millipore, 07-442, Burlington, MA, USA); anti-tetra-acetyl H4 (Millipore, 06-866); anti-H4K8Ac (Millipore, 07-328); anti-H4K20me3 (Abcam, ab9053); anti-H3K4me3 (Diagenode) and anti-H3K9Ac (Millipore, 07-352) at 1:10,000. The following secondary antibodies were used: anti-rabbit IgG-Peroxidase produced in goat (Sigma-Aldrich) or anti-mouse IgG-Peroxidase (Sigma-Aldrich); at 1:20,000 dilutions. Blots were developed using ECL Prime Western Blotting (GE Healthcare, Chicago, IL, USA) and read on a Chemidoc touch imaging software. Densitometry analysis was performed by using ImageLab software from Bio-Rad. To determine if variations in histone abundances were statistically significant, immunoblotting experiments were performed on 3 biological replicates and each run was performed twice.

H3K4me3 = assay: as above; type: cell-based, Plasmodium falciparum; details: 90nM
Method: as §3

H3K4me1 = assay: as above; type: cell-based, Plasmodium falciparum; details: 90nM
Method: as §3

H4K20me3 = assay: as above; type: cell-based, Plasmodium falciparum; details: 90nM
Method: as §3

MCF7 = details: cited from earlier work
[4] = Plasmodium falciparum, F32, 48 h
[5] = 24 h, F32-ART ring stage proliferating, 3 replicates (Fig 3B)
[6] = DHA 6 h/DHA + BIX-01294 24 h, F32-ART DHA-treated parasites, 3 replicates (Fig 3F)

Compound | IC50 [1, 4] [nM] | Selectivity Index CC50/IC50 [1] | Delay in parasite recrudescence time (difference between median recrudescence times), ART/ART + compound vs ART/ART ([2]; quiescence induced with ART 3 µM 6 h, then 48 h ART + compound at its IC90) [days] | Delay in recrudescence time, DHA/DHA + compound vs DHA/DHA ([2]; quiescence induced with DHA 700 nM 6 h, then 48 h DHA + compound at its IC90) | IC50 [3, 4] [nM] | CC50 (HFF) [nM] | Fold change of H3K4me2 abundance, BIX-01294 vs DMSO (H3K4me2; [5]) | Fold change of H3K4me2 abundance, BIX-01294, quiescent stage (H3K4me2; [6]) | Fold change of H3K4me3 abundance, BIX-01294 vs DMSO (H3K4me3; [5]) | Fold change of H3K4me3 abundance, BIX-01294, quiescent stage (H3K4me3; [6]) | Fold change of H3K4me1 abundance, BIX-01294 vs DMSO (H3K4me1; [5]) | Fold change of H3K4me1 abundance, BIX-01294, quiescent stage (H3K4me1; [6]) | Fold change of H4K20me3 abundance, BIX-01294 vs DMSO (H4K20me3; [5]) | Fold change of H4K20me3 abundance, BIX-01294, quiescent stage (H4K20me3; [6]) | IC50 ([1]; F32-ART, 48 h incubation, SYBR Green I, mean ± SEM of 3 experiments (* mean of 2)) [nM] | CC50 (MCF7; MCF7 cancer, data from literature ref 42, read-out: Cytotoxicity: CC50 (MCF7 cancer)) [nM] | IC50 ([3]; F32-TEM, 48 h incubation, SYBR Green I, mean ± SEM of 3 experiments (* mean of 2)) [nM] | IC50 ([1]; Plasmodium falciparum, F32-ART, 48 h incubation, SYBR Green I, mean ± SEM of 3 experiments (* mean of 2)) [nM] | CC50 (MCF7; MCF7, data from literature ref 45, read-out: Cytotoxicity: CC50 (MCF7)) [nM] | IC50 ([3]; Plasmodium falciparum, F32-TEM, 48 h incubation, SYBR Green I, mean ± SEM of 3 experiments (* mean of 2)) [nM]
COc1cc2nc(N3CCCN(C)CC3)nc(NC3CCN(Cc4ccccc4)CC3)c2cc1OC [BIX-01294] | 56 ± 8 | 110 | 8.5 | slightly shorter delay | 55 ± 14 | 6100 | significantly decreased level and 0.66 and 0.68 and 0.73 | did not induce a quantifiable change and 1.57 and 0.88 and 0.79 | significantly decreased level and 0.89 and 0.88 and 0.80 | did not induce a quantifiable change and 1.11 and 1.28 and 0.96 | significantly decreased level and 0.58 and 0.68 and 0.70 | did not induce a quantifiable change and 1.47 and 1.13 and 0.70 | significantly decreased level and 0.69 and 0.64 and 0.72 | did not induce a quantifiable change and 0.66 and 1.37 and 0.84 | – | – | – | – | – | –
O=C(CCCCCCC(=O)N[c-]1cccc1)NO.[Fe+2].c1cc[cH-]c1 [JAHA] | – | – | – | – | – | – | – | – | – | – | – | – | – | – | 460 ± 30 | 2400 | 690 ± 80 | – | – | –
COc1ccc(CN2CCc3ccc(C(=O)NO)cc32)cc1 [PCI 34051] | – | >2.5 | – | – | – | – | – | – | – | – | – | – | – | – | – | – | – | 8000 | > 20000 | 9000
